The species entered for test [1] is Cavia porcellus. The test can be described thus: Inhibition of 2-chloroadenosine-induced relaxation in histamine-contracted guinea pig trachea. It is filed as functional, organism-based.
In a further test the target is Adenosine A2 receptor (Rattus norvegicus, UniProt P29276+P30543).
Another test has as its target T1, Adenosine receptor A1 (Rattus norvegicus, UniProt P25099).
T1 sequence (P25099 whole entry): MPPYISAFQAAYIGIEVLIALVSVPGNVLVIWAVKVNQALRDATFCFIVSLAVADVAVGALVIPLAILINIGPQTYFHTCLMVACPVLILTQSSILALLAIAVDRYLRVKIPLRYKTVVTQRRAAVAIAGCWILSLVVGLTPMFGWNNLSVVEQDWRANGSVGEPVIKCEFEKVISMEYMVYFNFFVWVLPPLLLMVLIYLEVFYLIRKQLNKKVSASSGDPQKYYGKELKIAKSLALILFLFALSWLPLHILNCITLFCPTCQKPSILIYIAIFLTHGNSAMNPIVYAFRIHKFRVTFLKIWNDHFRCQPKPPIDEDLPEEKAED
In words: Inhibition of binding towards adenosine A1 receptor using [3H]N-cyclohexyladenosine ([3H]CHA) in rat whole brain membranes. Format: cell membranes.

Test [2] is filed under the species Cavia porcellus. In words: In vitro inhibition of adenylate cyclase activity of synaptoneurosomes from guinea pig cerebral cortex. It is filed as functional.
Test [3] concerns the target T2, Adenosine receptor A1 (Rattus norvegicus) (UniProt P25099).
T2 sequence (whole entry): T1 sequence (P25099 whole entry)
In words: (§1) Ratio of Ki at A2 to Ki at A1 receptors.

The nature of test [4]: as §1.

pIC50: −log10 of the molar value.

This note sets out measurements from ChEMBL document CHEMBL1124100, “Structure-activity profile of a series of novel triazoloquinazoline adenosine antagonists” (J Med Chem, 1988).

Description for Adenosine A2 receptor: Inhibition of binding to Adenosine-2 receptor using [3H]NECA in rat striatum

The pIC50 is −log10 of the IC50, conventionally taken in molar units. Read a low pIC50 as a large IC50. As a reminder, the IC50 is the concentration that inhibits the measured activity by half. A high value points to a need for much substance. For `CS(=O)(=O)O.Nc1nc2ccc(Cl)cc2c2nc(-c3ccco3)nn12`, the pIC50 in the test filed under Cavia porcellus [1] was 8.52. The IC50 on Adenosine A2 receptor is 3.3 nM.
Turning to `CS(=O)(=O)O.Nc1nc2ccc(Cl)cc2c2nc(-c3cccs3)nn12`, the values for the pIC50 at Adenosine receptor A1, in the test listed under Cavia porcellus [1] and in the test filed under Cavia porcellus [2] were 6.49, < 6.00 and 6.70, respectively. In test [3], the Ratio is 0.36. On Adenosine A2 receptor, this compound registered an IC50 of 116 nM.
As to `Nc1nc2ccc(O)cc2c2nc(-c3ccco3)nn12`, the values for the pIC50 on Adenosine receptor A1 and in the test filed under Cavia porcellus [1] were 8.02 and 6.00, respectively. The Ratio in test [3] was determined as 0.58. The compound further gave an IC50 against Adenosine A2 receptor of 5.5 nM.
As to `Nc1nc2ccccc2c2nc(-c3ccco3)nn12`, the pIC50 on Adenosine receptor A1 is 7.42; in the test filed under Cavia porcellus [1] it was 7.00; in the test filed under Cavia porcellus [2], 7.40. The Ratio in test [3] came out at 0.71. This compound registered an IC50 against Adenosine A2 receptor of 27 nM.
For the compound `Cn1c(=O)c2nc[nH]c2n(C)c1=O` [THEOPHYLLINE], the pIC50 in the test filed under Cavia porcellus [1] is 5.52; in the test filed under Cavia porcellus [2], 5.00.
With `Nc1nc2ccc(Cl)cc2c2nc(C3CCCO3)nn12` (stereo unspecified), the pIC50 on Adenosine receptor A1 is 6.08; in the test listed under Cavia porcellus [1], < 6.00; in the test listed under Cavia porcellus [2] it was 6.32. Moreover, the Ratio in test [3] is 1.9. In addition, the IC50 on Adenosine A2 receptor amounted to 1580 nM.
For `CNc1nc2ccc(Cl)cc2c2nc(-c3ccco3)nn12`, the pIC50 at Adenosine receptor A1 was 7.05; in the test listed under Cavia porcellus [1] it was < 6.00. The Ratio in test [3] is 0.69. The compound also came in with an IC50 against Adenosine A2 receptor of 61 nM.
On to `CC(C)(C)Nc1nc2ccc(Cl)cc2c2nc(-c3ccco3)nn12`, for which the pIC50 on Adenosine receptor A1 is < 5.00; in the test filed under Cavia porcellus [1], < 6.00. The IC50 against Adenosine A2 receptor is > 10000 nM.
With `CS(=O)(=O)O.Nc1nc2ccc(Cl)cc2c2nc(-c3ccoc3)nn12`, the pIC50 at Adenosine receptor A1 is 6.53; in the test listed under Cavia porcellus [1] it was < 6.00; in the test filed under Cavia porcellus [2], 7.10. Further, the Ratio in test [4] was 0.49. This compound also displayed an IC50 against Adenosine A2 receptor of 145 nM.
As to `CS(=O)(=O)O.Nc1nc2ccc(Cl)cc2c2nc(-c3ccc[nH]3)nn12`, the figures for the pIC50 on Adenosine receptor A1 and in the test listed under Cavia porcellus [1] were 6.21 and < 6.00, respectively. Further, the Ratio in test [3] turned out to be 2. On Adenosine A2 receptor, this compound gave an IC50 of 1205 nM.
As for `CN(C)c1nc2ccc(Cl)cc2c2nc(-c3ccco3)nn12`, the figures for the pIC50 on Adenosine receptor A1, in the test filed under Cavia porcellus [1] and in the test listed under Cavia porcellus [2] were < 5.00, < 6.00 and < 6.00, respectively. Also, the IC50 at Adenosine A2 receptor is recorded as > 10000 nM.
For `COc1ccc2nc(N)n3nc(-c4ccco4)nc3c2c1`, the pIC50 on Adenosine receptor A1 is 7.51; in the test filed under Cavia porcellus [1] it was < 5.00. For the same compound, the Ratio in test [3] was 0.61. The compound also came in with an IC50 against Adenosine A2 receptor of 19 nM.
In the case of `OCCNc1nc2ccc(Cl)cc2c2nc(-c3ccco3)nn12`, the pIC50 was 7.68 on Adenosine receptor A1 and < 6.00 in the test filed under Cavia porcellus [1]. Further, in test [3], the Ratio was 2.7. This compound also yielded an IC50 against Adenosine A2 receptor of 56 nM.
On to `CC(C)Nc1nc2ccc(Cl)cc2c2nc(-c3ccco3)nn12`, for which the pIC50 was 7.66 at Adenosine receptor A1, < 6.00 in the test filed under Cavia porcellus [1] and 6.40 in the test filed under Cavia porcellus [2]. Besides, the Ratio in test [3] was found to be 8.2. Further, on Adenosine A2 receptor, the IC50 worked out at 179 nM.
Take `Oc1nc2ccc(Cl)cc2c2nc(-c3ccco3)nn12`: the results for the pIC50 on Adenosine receptor A1 and in the test listed under Cavia porcellus [1] were 5.00 and < 6.00, respectively. In addition, the IC50 on Adenosine A2 receptor is listed as > 10000 nM.
On to `CCC(C)Nc1nc2ccc(Cl)cc2c2nc(-c3ccco3)nn12.CS(=O)(=O)O` (stereo unspecified), for which the pIC50 was 7.21 at Adenosine receptor A1 and < 6.00 in the test listed under Cavia porcellus [1]. Besides, in test [3], the Ratio amounted to 2.6. Moreover, the IC50 at Adenosine A2 receptor came to 158 nM.
The matching figures for `Nc1nc2ccc(Cl)cc2c2nc(-c3ccc(Br)o3)nn12`: 5.80, < 6.00, 0.34 and 531 nM.
For `CS(=O)(=O)O.Cn1c(=N)n2nc(-c3ccco3)nc2c2ccccc21`, the pIC50 at Adenosine receptor A1 is 5.91; in the test listed under Cavia porcellus [1] it was < 6.00; in the test listed under Cavia porcellus [2] it was 5.83. Besides, in test [3], the Ratio amounted to 2.4. The compound further gave an IC50 against Adenosine A2 receptor of 2914 nM.
With `Nc1nc2ccc(OCc3ccccc3)cc2c2nc(-c3ccco3)nn12`, the pIC50 was 6.84 at Adenosine receptor A1 and < 5.00 in the test listed under Cavia porcellus [1]. The Ratio in test [3] is 8.9. The IC50 against Adenosine A2 receptor is reported as 1290 nM.
